Test system: MV-4-11 cells
Assay: Gene expression microarray analysis (Affymetrix PrimeView) and GSEA
Assay type: cell-based, human
Set-up: RFU PODN (11730768_x_at) / Fold change /veh PODN (11730768_x_at) / RFU LINC00158 (11744669_a_at) / Fold change /veh LINC00158 (11744669_a_at) / RFU DUSP10 (11751237_a_at) / Fold change /veh DUSP10 (11751237_a_at) / RFU ID3 (11757404_x_at) / Fold change /veh ID3 (11757404_x_at) / RFU PLEKHG5 (11737974_s_at) / Fold change /veh PLEKHG5 (11737974_s_at) / RFU LRRC4B (11730491_at) / Fold change /veh LRRC4B (11730491_at) / RFU GIMAP4 (11747438_a_at) / Fold change /veh GIMAP4 (11747438_a_at) / RFU KRT8 (11758183_x_at) / Fold change /veh KRT8 (11758183_x_at) / RFU CNN1 (11734310_a_at) / Fold change /veh CNN1 (11734310_a_at) / RFU VPS37D (11726825_at) / Fold change /veh VPS37D (11726825_at) / RFU C10orf10 (11716522_x_at) / Fold change /veh C10orf10 (11716522_x_at) / RFU KIR2DL2 /// KIR2DL4 /// KIR2DL5A /// KIR2DL5B /// KIR2DS1 /// KIR2DS2 /// KIR2DS3 /// KIR2DS4 /// KIR3DL3 /// KIR3DL3 /// KIR3DS1 (11738374_at) / Fold change /veh KIR2DL2 /// KIR2DL4 /// KIR2DL5A /// KIR2DL5B /// KIR2DS1 /// KIR2DS2 /// KIR2DS3 /// KIR2DS4 /// KIR3DL3 /// KIR3DL3 /// KIR3DS1 (11738374_at) / RFU C1QL1 (11718748_at) / Fold change /veh C1QL1 (11718748_at) / RFU TMPRSS4 (11747572_a_at) / Fold change /veh TMPRSS4 (11747572_a_at) / RFU HAMP (11756126_x_at) / Fold change /veh HAMP (11756126_x_at) / RFU RNFT2 (11725882_a_at) / Fold change /veh RNFT2 (11725882_a_at) / RFU NR4A2 (11747474_a_at) / Fold change /veh NR4A2 (11747474_a_at) / RFU ABCC12 (11746883_a_at) / Fold change /veh ABCC12 (11746883_a_at) / RFU TMEM136 (11760407_x_at) / Fold change /veh TMEM136 (11760407_x_at) / RFU CLDN22 /// WWC2 (11732394_at) / Fold change /veh CLDN22 /// WWC2 (11732394_at) / RFU HLA-DPB1 (11760878_x_at) / Fold change /veh HLA-DPB1 (11760878_x_at) / RFU SPINT1 (11716480_a_at) / Fold change /veh SPINT1 (11716480_a_at) / RFU GAP43 (11754022_s_at) / Fold change /veh GAP43 (11754022_s_at) / RFU A4GNT (11735810_at) / Fold change /veh A4GNT (11735810_at) / RFU PRB3 (11715151_x_at) / Fold change /veh PRB3 (11715151_x_at) / RFU TUBB4B (11761932_at) / Fold change /veh TUBB4B (11761932_at) / RFU CAPN14 (11732068_a_at) / Fold change /veh CAPN14 (11732068_a_at) / RFU TMCC2 (11721928_a_at) / Fold change /veh TMCC2 (11721928_a_at) / RFU IRGQ (11745062_a_at) / Fold change /veh IRGQ (11745062_a_at) / RFU FAM174B (11720279_a_at) / Fold change /veh FAM174B (11720279_a_at) / RFU TMPRSS4 (11748680_a_at) / Fold change /veh TMPRSS4 (11748680_a_at) / RFU FAM212B (11763350_a_at) / Fold change /veh FAM212B (11763350_a_at) / RFU PLEKHG5 (11743358_a_at) / Fold change /veh PLEKHG5 (11743358_a_at) / RFU ZSCAN30 (11745921_a_at) / Fold change /veh ZSCAN30 (11745921_a_at) / RFU CMKLR1 (11741424_a_at) / Fold change /veh CMKLR1 (11741424_a_at) / RFU LOC101060620 /// MAPK8IP1 (11723275_at) / Fold change /veh LOC101060620 /// MAPK8IP1 (11723275_at) / RFU SPTSSB (11747773_x_at) / Fold change /veh SPTSSB (11747773_x_at) / RFU PRSS12 (11739890_at) / Fold change /veh PRSS12 (11739890_at) / RFU BIN1 (11741810_x_at) / Fold change /veh BIN1 (11741810_x_at) / RFU WNT11 (11732464_a_at) / Fold change /veh WNT11 (11732464_a_at) / RFU C10orf10 (11716521_a_at) / Fold change /veh C10orf10 (11716521_a_at) / RFU C5orf56 (11738089_at) / Fold change /veh C5orf56 (11738089_at) / RFU CYB561 (11721691_x_at) / Fold change /veh CYB561 (11721691_x_at) / RFU ANKRD19P (11752326_a_at) / Fold change /veh ANKRD19P (11752326_a_at) / RFU OR2T12 /// OR2T33 /// OR2T8 (11738714_s_at) / Fold change /veh OR2T12 /// OR2T33 /// OR2T8 (11738714_s_at) / RFU VCAN (11748164_a_at) / Fold change /veh VCAN (11748164_a_at) / RFU JSRP1 (11732532_at) / Fold change /veh JSRP1 (11732532_at) / RFU KRTAP10-11 (11738290_x_at) / Fold change /veh KRTAP10-11 (11738290_x_at) / RFU MYO3A (11730013_a_at) / Fold change /veh MYO3A (11730013_a_at) / RFU EBF3 (11725865_a_at) / Fold change /veh EBF3 (11725865_a_at) / RFU CAMK2N1 (11719241_x_at) / Fold change /veh CAMK2N1 (11719241_x_at) / RFU C5orf56 (11738088_a_at) / Fold change /veh C5orf56 (11738088_a_at) / RFU OLFML3 (11715873_a_at) / Fold change /veh OLFML3 (11715873_a_at) / RFU LOC100653217 /// NTM (11731650_a_at) / Fold change /veh LOC100653217 /// NTM (11731650_a_at) / RFU MAPK11 (11762145_a_at) / Fold change /veh MAPK11 (11762145_a_at) / RFU FIZ1 (11724087_x_at) / Fold change /veh FIZ1 (11724087_x_at) / RFU OASL (11726364_x_at) / Fold change /veh OASL (11726364_x_at) / RFU SOX15 (11748057_x_at) / Fold change /veh SOX15 (11748057_x_at) / RFU CD79A (11719716_a_at) / Fold change /veh CD79A (11719716_a_at) / RFU HIST1H1D (11736915_at) / Fold change /veh HIST1H1D (11736915_at) / RFU CASKIN2 (11723855_a_at) / Fold change /veh CASKIN2 (11723855_a_at) / RFU LOC730098 (11760151_x_at) / Fold change /veh LOC730098 (11760151_x_at) / RFU OR4N2 (11742367_at) / Fold change /veh OR4N2 (11742367_at) / RFU PRRT2 (11749266_a_at) / Fold change /veh PRRT2 (11749266_a_at) / RFU SNX32 (11753110_a_at) / Fold change /veh SNX32 (11753110_a_at) / RFU CDHR5 (11726645_a_at) / Fold change /veh CDHR5 (11726645_a_at) / RFU RCAN1 (11760418_a_at) / Fold change /veh RCAN1 (11760418_a_at) / RFU FAM167A (11723789_a_at) / Fold change /veh FAM167A (11723789_a_at) / RFU FAM26E (11764081_at) / Fold change /veh FAM26E (11764081_at) / RFU ISYNA1 (11749810_s_at) / Fold change /veh ISYNA1 (11749810_s_at) / RFU ACY1 (11761880_at) / Fold change /veh ACY1 (11761880_at) / RFU 11764098_at / Fold change /veh 11764098_at / RFU SAMD14 (11745864_x_at) / Fold change /veh SAMD14 (11745864_x_at) / RFU NPB (11741838_a_at) / Fold change /veh NPB (11741838_a_at) / RFU TMPRSS6 (11731388_a_at) / Fold change /veh TMPRSS6 (11731388_a_at) / RFU KRTAP10-2 (11738614_at) / Fold change /veh KRTAP10-2 (11738614_at) / RFU ARHGAP8 /// PRR5-ARHGAP8 (11727945_x_at) / Fold change /veh ARHGAP8 /// PRR5-ARHGAP8 (11727945_x_at) / RFU KRTAP5-7 /// NADSYN1 (11734609_at) / Fold change /veh KRTAP5-7 /// NADSYN1 (11734609_at) / RFU RASL12 (11751679_a_at) / Fold change /veh RASL12 (11751679_a_at) / RFU CDKN2B (11736163_a_at) / Fold change /veh CDKN2B (11736163_a_at) / RFU PRF1 (11729649_at) / Fold change /veh PRF1 (11729649_at) / RFU, ZNF638 /// ZNF638-IT1 / Fold change vs veh, ZNF638 /// ZNF638-IT1 / RFU, PANK3 / Fold change vs veh, PANK3 / RFU, SH3YL1 / Fold change vs veh, SH3YL1 / RFU, ZEB2 / Fold change vs veh, ZEB2 / RFU, NRIP1 / Fold change vs veh, NRIP1 / RFU, PTTG1IP / Fold change vs veh, PTTG1IP / RFU, CAPN2 / Fold change vs veh, CAPN2 / RFU, MED14 / Fold change vs veh, MED14 / RFU, SNORA58 / Fold change vs veh, SNORA58 / RFU, C1orf63 / Fold change vs veh, C1orf63 / RFU, LRRFIP1 / Fold change vs veh, LRRFIP1 / RFU, NDUFAF7 / Fold change vs veh, NDUFAF7 / RFU, SLC12A2 / Fold change vs veh, SLC12A2 / RFU, IBTK / Fold change vs veh, IBTK / RFU, ESF1 / Fold change vs veh, ESF1 / Fold change vs veh, TMEM50B / RFU, TAOK1 / Fold change vs veh, TAOK1 / RFU, ACBD3 / Fold change vs veh, ACBD3 / RFU, TMA16 / Fold change vs veh, TMA16 / RFU, RWDD3 / Fold change vs veh, RWDD3 / RFU, BCAT1 / Fold change vs veh, BCAT1 / RFU, EDEM3 / Fold change vs veh, EDEM3 / RFU, TMEM33 / Fold change vs veh, TMEM33 / RFU, WDR75 / Fold change vs veh, WDR75 / RFU, AHCTF1 / Fold change vs veh, AHCTF1 / RFU, TFRC / Fold change vs veh, TFRC / RFU, ZDHHC17 / Fold change vs veh, ZDHHC17 / RFU, NOM1 / Fold change vs veh, NOM1 / RFU, ARL8B / Fold change vs veh, ARL8B / RFU, ZBTB11 / Fold change vs veh, ZBTB11 / RFU, TAMM41 / Fold change vs veh, TAMM41 / RFU, KIAA1704 /// LOC100996395 / Fold change vs veh, KIAA1704 /// LOC100996395 / RFU, ING1 / Fold change vs veh, ING1 / RFU, TRMT61B / Fold change vs veh, TRMT61B / RFU, FUBP3 / Fold change vs veh, FUBP3 / RFU, TP53 / Fold change vs veh, TP53 / RFU, TNKS2 / Fold change vs veh, TNKS2 / RFU, ZFP14 / Fold change vs veh, ZFP14 / RFU, ACTR2 / Fold change vs veh, ACTR2 / RFU, PPP3R1 / Fold change vs veh, PPP3R1 / RFU, PIK3R1 / Fold change vs veh, PIK3R1 / RFU, HNRNPA1 / Fold change vs veh, HNRNPA1 / RFU, RNF170 / Fold change vs veh, RNF170 / RFU, ZNF28 / Fold change vs veh, ZNF28 / RFU, RNGTT / Fold change vs veh, RNGTT / RFU, OGT / Fold change vs veh, OGT / RFU, BRD1 / Fold change vs veh, BRD1 / RFU, MARS / Fold change vs veh, MARS / RFU, ZNF655 / Fold change vs veh, ZNF655 / RFU, FAHD1 / Fold change vs veh, FAHD1 / RFU, BDP1 / Fold change vs veh, BDP1 / RFU, LRRCC1 / Fold change vs veh, LRRCC1 / RFU, ARID1A / Fold change vs veh, ARID1A / RFU, ZNF146 / Fold change vs veh, ZNF146 / RFU, ZNF330 / Fold change vs veh, ZNF330 / RFU, GPN3 / Fold change vs veh, GPN3 / RFU, C9orf123 / Fold change vs veh, C9orf123 / RFU, N4BP2L2 / Fold change vs veh, N4BP2L2 / RFU, ARFIP1 / Fold change vs veh, ARFIP1 / RFU, FAM179B / Fold change vs veh, FAM179B / RFU, BCL10 / Fold change vs veh, BCL10 / RFU, UHRF1BP1L / Fold change vs veh, UHRF1BP1L / RFU, BET1 / Fold change vs veh, BET1 / RFU, CNOT2 / Fold change vs veh, CNOT2 / RFU, ZNF268 / Fold change vs veh, ZNF268 / Fold change vs veh, ZNF507 / RFU, DGCR2 / Fold change vs veh, DGCR2 / RFU, WDSUB1 / Fold change vs veh, WDSUB1 / Fold change vs veh, HSP90B1 /// MIR3652 / RFU, ADSS / Fold change vs veh, ADSS / RFU, GK / Fold change vs veh, GK / RFU, ZNF148 / Fold change vs veh, ZNF148 / RFU, TAF9 / Fold change vs veh, TAF9 / RFU, SLC1A5 / Fold change vs veh, SLC1A5 / RFU, SLMO2 / Fold change vs veh, SLMO2 / RFU, ABCC4 / Fold change vs veh, ABCC4 / RFU, LOC101060439 /// RAP1B / Fold change vs veh, LOC101060439 /// RAP1B / RFU, RFX7 / Fold change vs veh, RFX7 / RFU, GTPBP10 / Fold change vs veh, GTPBP10 / RFU, CNEP1R1 / Fold change vs veh, CNEP1R1 / RFU, BIVM-ERCC5 /// ERCC5 / Fold change vs veh, BIVM-ERCC5 /// ERCC5 / RFU, ILF3 / Fold change vs veh, ILF3 / RFU 11762660_at / Fold change /veh 11762660_at / RFU VCAN (11757783_s_at) / Fold change /veh VCAN (11757783_s_at) / RFU DDX43 (11728927_at) / Fold change /veh DDX43 (11728927_at) / RFU KRT8 (11758188_x_at) / Fold change /veh KRT8 (11758188_x_at) / RFU NKD1 (11759106_at) / Fold change /veh NKD1 (11759106_at) / RFU SRD5A1 (11742802_a_at) / Fold change /veh SRD5A1 (11742802_a_at) / RFU TPSAB1 /// TPSB2 (11721975_s_at) / Fold change /veh TPSAB1 /// TPSB2 (11721975_s_at) / RFU GSTM3 (11746129_a_at) / Fold change /veh GSTM3 (11746129_a_at) / RFU IL23R (11737362_x_at) / Fold change /veh IL23R (11737362_x_at) / RFU TMEM51 (11727254_a_at) / Fold change /veh TMEM51 (11727254_a_at) / RFU PIWIL2 (11732686_x_at) / Fold change /veh PIWIL2 (11732686_x_at) / RFU ORM1 (11744905_x_at) / Fold change /veh ORM1 (11744905_x_at) / RFU CCDC152 (11743942_at) / Fold change /veh CCDC152 (11743942_at) / RFU ECM1 (11717891_a_at) / Fold change /veh ECM1 (11717891_a_at) / RFU IL23R (11748794_a_at) / Fold change /veh IL23R (11748794_a_at) / RFU TNFAIP8L3 (11732012_x_at) / Fold change /veh TNFAIP8L3 (11732012_x_at) / RFU MBOAT4 (11741988_at) / Fold change /veh MBOAT4 (11741988_at) / RFU 11764193_at / Fold change /veh 11764193_at / RFU TMEM53 (11763286_at) / Fold change /veh TMEM53 (11763286_at) / RFU MAGEB2 (11727129_at) / Fold change /veh MAGEB2 (11727129_at) / RFU TMEM200A (11744735_a_at) / Fold change /veh TMEM200A (11744735_a_at) / RFU CCDC152 (11751479_a_at) / Fold change /veh CCDC152 (11751479_a_at) / RFU FAM211A (11726209_a_at) / Fold change /veh FAM211A (11726209_a_at) / RFU RGS16 (11746705_a_at) / Fold change /veh RGS16 (11746705_a_at) / RFU VCAN (11755009_s_at) / Fold change /veh VCAN (11755009_s_at) / RFU RHOB (11743442_s_at) / Fold change /veh RHOB (11743442_s_at) / RFU RGS16 (11720943_a_at) / Fold change /veh RGS16 (11720943_a_at) / RFU RGS16 (11720944_at) / Fold change /veh RGS16 (11720944_at) / RFU, VPS4B / Fold change vs veh, VPS4B / RFU, CREB1 / Fold change vs veh, CREB1 / RFU, DNAJC13 / Fold change vs veh, DNAJC13 / RFU, GNAQ / Fold change vs veh, GNAQ / RFU, CDK5R1 / Fold change vs veh, CDK5R1 / RFU, ZRANB3 / Fold change vs veh, ZRANB3 / RFU, CUL4A / Fold change vs veh, CUL4A / RFU, CCNY / Fold change vs veh, CCNY / RFU, UFL1 / Fold change vs veh, UFL1 / RFU, COG3 / Fold change vs veh, COG3 / RFU, DIAPH2 / Fold change vs veh, DIAPH2 / RFU, SKA2 / Fold change vs veh, SKA2 / RFU, AFF3 / Fold change vs veh, AFF3 / RFU, LMF1 / Fold change vs veh, LMF1 / RFU, IPO11 / Fold change vs veh, IPO11 / RFU, DFFB / Fold change vs veh, DFFB / RFU, FOXP1 / Fold change vs veh, FOXP1 / RFU, CARD8 / Fold change vs veh, CARD8 / RFU, STRN3 / Fold change vs veh, STRN3 / RFU, ADK / Fold change vs veh, ADK / RFU, RASSF2 / Fold change vs veh, RASSF2 / RFU, WIPF1 / Fold change vs veh, WIPF1 / RFU, LARP1B / Fold change vs veh, LARP1B / RFU, RASA1 / Fold change vs veh, RASA1 / RFU, RB1 / Fold change vs veh, RB1 / RFU, PPFIA1 / Fold change vs veh, PPFIA1 / RFU, MAT2A / Fold change vs veh, MAT2A / RFU, CCT5 / Fold change vs veh, CCT5 / RFU, WDR92 / Fold change vs veh, WDR92 / RFU, CUX1 / Fold change vs veh, CUX1 / RFU, TTC7A / Fold change vs veh, TTC7A / RFU, TMEM135 / Fold change vs veh, TMEM135 / RFU, DEPTOR / Fold change vs veh, DEPTOR / RFU, CPM / Fold change vs veh, CPM / RFU, DNAJB6 / Fold change vs veh, DNAJB6 / RFU, CACNA2D3 / Fold change vs veh, CACNA2D3 / RFU, DTX4 / Fold change vs veh, DTX4 / RFU, TFCP2 / Fold change vs veh, TFCP2 / RFU, GMCL1 /// GMCL1P1 / Fold change vs veh, GMCL1 /// GMCL1P1 / RFU, AEBP2 / Fold change vs veh, AEBP2 / RFU, SNHG1 /// SNORD22 /// SNORD25 /// SNORD26 /// SNORD27 /// SNORD28 /// SNORD29 /// SNORD31 / Fold change vs veh, SNHG1 /// SNORD22 /// SNORD25 /// SNORD26 /// SNORD27 /// SNORD28 /// SNORD29 /// SNORD31 / Fold change (Aza/veh), C12orf56 (ProbeSet 11735607_a_at) / Fold change (ACY-1035/veh), C12orf56 (ProbeSet 11735607_a_at) / Fold change (Aza/veh), FGFR1OP (ProbeSet 11751329_s_at) / Fold change (ACY-1035/veh), FGFR1OP (ProbeSet 11751329_s_at) / Fold change (Aza/veh), VPS36 (ProbeSet 11739960_a_at) / Fold change (ACY-1035/veh), VPS36 (ProbeSet 11739960_a_at) / RFU SYPL1 (11715823_x_at) / Fold change /veh SYPL1 (11715823_x_at) / RFU IGFBP7 (11715501_s_at) / Fold change /veh IGFBP7 (11715501_s_at) / RFU REEP3 (11722064_at) / Fold change /veh REEP3 (11722064_at) / RFU IGLL1 (11728026_x_at) / Fold change /veh IGLL1 (11728026_x_at): dose or concentration left out as unconfirmed
Settings: MV-4-11 cells, 48 hours

Nc1ncn([C@@H]2O[C@H](CO)[C@@H](O)[C@H]2O)c(=O)n1 [azacitidine]
RFU CMKLR1 (11741424_a_at): 16.54 RFU
